Assay [1] has as its target T1, Muscarinic acetylcholine receptor M4 (Homo sapiens, UniProt P08173). Further: in other assays of this panel Not Active means under 50% inhibition at 10 µM.
T1 sequence (P08173 whole entry): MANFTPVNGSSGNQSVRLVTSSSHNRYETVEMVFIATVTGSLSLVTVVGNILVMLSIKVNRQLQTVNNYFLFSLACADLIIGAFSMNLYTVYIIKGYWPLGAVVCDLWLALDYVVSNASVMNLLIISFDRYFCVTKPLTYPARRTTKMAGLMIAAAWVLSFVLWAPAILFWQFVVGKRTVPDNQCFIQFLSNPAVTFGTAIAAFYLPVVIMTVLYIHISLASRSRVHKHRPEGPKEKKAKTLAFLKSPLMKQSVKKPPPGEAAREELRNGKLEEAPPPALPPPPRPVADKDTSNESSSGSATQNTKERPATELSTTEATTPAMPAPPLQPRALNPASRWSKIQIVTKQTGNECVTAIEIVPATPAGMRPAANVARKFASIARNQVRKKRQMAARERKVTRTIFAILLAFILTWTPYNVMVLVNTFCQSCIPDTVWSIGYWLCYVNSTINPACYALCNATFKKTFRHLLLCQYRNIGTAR
The format is cell membranes, CHO-K1, Membrane. The note with it: cho-k1.

The target of assay [2] is Beta-1 adrenergic receptor (Homo sapiens, UniProt P08588). The assay is described as follows: DRUGMATRIX: Adrenergic beta1 radioligand binding (ligand: [125I] Cyanopindolol). The format is cell membranes, CHO-K1, Membrane. Particulars: cho-k1; Not Active = under 50% inhibition at 10 µM.
Chain of Beta-1 adrenergic receptor (P08588 whole entry): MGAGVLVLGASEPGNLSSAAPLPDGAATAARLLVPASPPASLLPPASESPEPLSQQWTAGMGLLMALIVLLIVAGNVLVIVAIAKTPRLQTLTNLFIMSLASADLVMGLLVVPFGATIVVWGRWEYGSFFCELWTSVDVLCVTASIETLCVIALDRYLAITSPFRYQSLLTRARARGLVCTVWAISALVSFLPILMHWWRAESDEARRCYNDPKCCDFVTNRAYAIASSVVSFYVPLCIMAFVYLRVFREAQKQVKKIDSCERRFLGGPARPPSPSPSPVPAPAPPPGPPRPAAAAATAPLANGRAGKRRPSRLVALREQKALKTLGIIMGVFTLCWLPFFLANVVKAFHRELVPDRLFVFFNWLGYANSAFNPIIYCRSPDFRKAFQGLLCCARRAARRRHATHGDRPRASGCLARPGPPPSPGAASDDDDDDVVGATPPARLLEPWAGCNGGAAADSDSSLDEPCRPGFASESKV
In the next assay the target is T2, Estrogen receptor (Homo sapiens, UniProt P03372). Further: in other assays of this panel Not Active means under 50% inhibition at 10 µM.
T2 sequence (P03372 whole entry): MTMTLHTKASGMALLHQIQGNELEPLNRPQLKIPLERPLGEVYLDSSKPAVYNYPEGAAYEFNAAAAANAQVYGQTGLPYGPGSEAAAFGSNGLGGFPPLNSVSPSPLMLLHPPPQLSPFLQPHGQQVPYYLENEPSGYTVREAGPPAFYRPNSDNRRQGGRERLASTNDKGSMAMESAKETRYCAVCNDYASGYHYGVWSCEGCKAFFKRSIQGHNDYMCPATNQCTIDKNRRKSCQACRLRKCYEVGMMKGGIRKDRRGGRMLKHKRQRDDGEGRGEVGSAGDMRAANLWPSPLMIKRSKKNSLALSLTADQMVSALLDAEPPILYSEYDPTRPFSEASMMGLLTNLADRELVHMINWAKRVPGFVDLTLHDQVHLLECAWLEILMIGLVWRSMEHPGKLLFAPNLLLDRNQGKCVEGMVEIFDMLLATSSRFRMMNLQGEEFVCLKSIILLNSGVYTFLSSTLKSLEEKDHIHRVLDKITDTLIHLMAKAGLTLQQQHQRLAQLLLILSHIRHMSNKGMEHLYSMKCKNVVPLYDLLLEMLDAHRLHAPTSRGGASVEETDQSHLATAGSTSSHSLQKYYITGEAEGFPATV
The note with it: sf9.

The target of another assay is Melanocortin receptor 4 (Homo sapiens, UniProt P32245). The format is cell membranes, HEK293, Membrane. Particulars: hek293. Further: in other assays of this panel Not Active means under 50% inhibition at 10 µM.
Chain of Melanocortin receptor 4 (P32245 whole entry): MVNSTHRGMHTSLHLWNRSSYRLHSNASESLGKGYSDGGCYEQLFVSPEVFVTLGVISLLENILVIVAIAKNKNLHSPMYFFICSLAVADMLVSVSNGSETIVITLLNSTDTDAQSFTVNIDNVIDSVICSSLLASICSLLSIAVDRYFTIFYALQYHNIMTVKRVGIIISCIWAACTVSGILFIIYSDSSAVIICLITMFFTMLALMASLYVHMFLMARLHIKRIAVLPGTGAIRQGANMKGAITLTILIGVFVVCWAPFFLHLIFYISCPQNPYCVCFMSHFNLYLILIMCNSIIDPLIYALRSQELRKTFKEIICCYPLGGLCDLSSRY
In assay [3] the target is T3, Cholecystokinin receptor type A (Homo sapiens, UniProt P32238). Further: in other assays of this panel Not Active means under 50% inhibition at 10 µM.
T3 sequence (P32238 whole entry): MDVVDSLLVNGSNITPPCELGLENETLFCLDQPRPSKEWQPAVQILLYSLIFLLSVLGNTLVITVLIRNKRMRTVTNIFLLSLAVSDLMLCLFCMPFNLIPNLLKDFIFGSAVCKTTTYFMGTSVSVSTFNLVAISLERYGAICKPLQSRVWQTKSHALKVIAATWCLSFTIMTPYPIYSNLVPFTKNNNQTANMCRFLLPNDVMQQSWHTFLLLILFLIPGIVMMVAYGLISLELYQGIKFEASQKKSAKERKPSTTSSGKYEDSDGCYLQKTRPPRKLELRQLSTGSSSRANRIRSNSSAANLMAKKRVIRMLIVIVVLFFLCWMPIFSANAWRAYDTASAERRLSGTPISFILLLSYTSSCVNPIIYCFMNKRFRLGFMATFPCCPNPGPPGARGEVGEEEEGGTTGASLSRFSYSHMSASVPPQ
The format is cell membranes, Membrane. Particulars: 1321-n1.

Assay [4] is described as follows: DRUGMATRIX: Phosphodiesterase PDE4 enzyme inhibition (substrate: [3H]cAMP + cAMP). Particulars: u-937, Not Active = under 50% inhibition at 10 µM.

*1 amine or outer side, *2 acyl side, *3 side chain or, on linkers, in order; H or OH if unused. Where a SMILES comes first, the peptide text is derived from it. Bridges are numbered along the chain shown (N, C = ends). Roman numbers before positions name the chains, in order. [ ]: non-standard residue; d: D form. Actinocin(1to9) = Cc1c2oc3c(C)ccc(C(=O)[*:2])c3nc-2c(C(=O)[*:1])c(N)c1=O; NMeV = CN[C@H](C(=O)O)C(C)C; Sar = CNCC(=O)O

Turning to `COc1ccc(C[C@H]2NC[C@H](O)[C@H]2OC(C)=O)cc1` [ANISOMYCIN], the IC50 entry (in assay [1]; in assay [2]; against Estrogen receptor; on Melanocortin receptor 4; in assay [3]; in assay [4]) was “Not Active” each time. Besides, the Ki entry (in assay [1]; in assay [2]; at Estrogen receptor; on Melanocortin receptor 4; in assay [3]; in assay [4]) was “Not Active” each time.
Consider `Cc1onc(O)c1CC(N)C(=O)O` (racemic) [(R,S)-AMPA], for which the IC50 entry (in assay [1]; in assay [2]; against Estrogen receptor; at Melanocortin receptor 4; in assay [3]; in assay [4]) was “Not Active” throughout. Further, the Ki result in assay [4] is recorded as “Not Active”.
Turning to `Cc1c(O)c(=O)ccn1C` [DEFERIPRONE], the IC50 result (in assay [1]; in assay [2]; against Estrogen receptor; against Melanocortin receptor 4; in assay [3]; in assay [4]) was “Not Active” each time. The Ki entry in assay [4] is reported as “Not Active”.
Take `Nc1ncn([C@@H]2O[C@H](CO)[C@@H](O)[C@H]2O)c(=O)n1` [AZACITIDINE]: the IC50 result (in assay [1]; in assay [2]; at Estrogen receptor; on Melanocortin receptor 4; in assay [3]; in assay [4]) was “Not Active” each time. For the same compound, the Ki result in assay [4] is given as “Not Active”.
In the case of `CCn1cc(C(=O)O)c(=O)c2cc(F)c(N3CCNCC3)cc21` [NORFLOXACIN], the IC50 result (in assay [1]; in assay [2]; on Estrogen receptor; against Melanocortin receptor 4; in assay [3]; in assay [4]) was “Not Active” in each case. Moreover, the Ki result in assay [4] is reported as “Not Active”.
As to `CCOC(=O)C1=C(COCCN)NC(C)=C(C(=O)OC)C1c1ccccc1Cl` (stereo unspecified) [AMLODIPINE], the IC50 entry (in assay [1]; in assay [2]; against Estrogen receptor; against Melanocortin receptor 4; in assay [3]; in assay [4]) was “Not Active” throughout. In addition, the Ki entry in assay [4] is “Not Active”.
On to `CC1Cc2ccccc2N1NC(=O)c1ccc(Cl)c(S(N)(=O)=O)c1` (stereo unspecified) [INDAPAMIDE], for which the IC50 result (in assay [1]; in assay [2]; against Estrogen receptor; against Melanocortin receptor 4; in assay [3]; in assay [4]) was “Not Active” each time. Moreover, in assay [4], the Ki result is reported as “Not Active”.
With LEAD (II) ACETATE, the IC50 result (in assay [1]; in assay [2]; against Estrogen receptor; against Melanocortin receptor 4; in assay [3]; in assay [4]) was “Not Active” in each case. For the same compound, the Ki result (in assay [1]; in assay [2]; at Estrogen receptor; at Melanocortin receptor 4; in assay [3]; in assay [4]) was “Not Active” throughout.
On to `Cc1c2oc3c(C)ccc(C(=O)N[C@@H]4C(=O)N[C@H](C(C)C)C(=O)N5CCC[C@H]5C(=O)N(C)CC(=O)N(C)[C@@H](C(C)C)C(=O)O[C@@H]4C)c3nc-2c(C(=O)N[C@@H]2C(=O)N[C@H](C(C)C)C(=O)N3CCC[C@H]3C(=O)N(C)CC(=O)N(C)[C@@H](C(C)C)C(=O)O[C@@H]2C)c(N)c1=O` [DACTINOMYCIN] (I: T[dV]P[Sar][NMeV] / II: T[dV]P[Sar][NMeV]; ester I:1-I:C, II:1-II:C; linker I:N-II:N via Actinocin(1to9)), for which the IC50 result (in assay [1]; in assay [2]; against Estrogen receptor; against Melanocortin receptor 4; in assay [3]; in assay [4]) was “Not Active” each time. The Ki entry in assay [4] is given as “Not Active”.
On to `NCCCCCC(=O)O` [AMINOCAPROIC ACID], for which the IC50 entry (in assay [1]; in assay [2]; at Estrogen receptor; at Melanocortin receptor 4; in assay [3]; in assay [4]) was “Not Active” throughout. Also, the Ki entry in assay [4] is listed as “Not Active”.
For `c1ccc(Nc2ccc(Nc3ccccc3)cc2)cc1`, the 50% inhibitory concentration (IC50) entry (in assay [1]; in assay [2]; at Estrogen receptor; at Melanocortin receptor 4; in assay [3]; in assay [4]) was “Not Active” in each case. Moreover, the Ki entry in assay [4] is “Not Active”.
As to `NC(=O)N1c2ccccc2CCc2ccccc21`, the IC50 result (in assay [1]; in assay [2]; against Estrogen receptor; on Melanocortin receptor 4; in assay [3]; in assay [4]) was “Not Active” each time. Besides, in assay [4], the Ki entry is recorded as “Not Active”.
`Cc1ccc(-c2cc(C(F)(F)F)nn2-c2ccc(S(N)(=O)=O)cc2)cc1` [CELECOXIB]: the IC50 entry in assay [1] was “Not Active”; in assay [2], “Not Active”; on Estrogen receptor, “Not Active”; at Melanocortin receptor 4, “Not Active”; in assay [3], “Not Active”; in assay [4] (read-out: IC50) it was 9.26 µM.
As to `Cc1onc(-c2ccccc2Cl)c1C(=O)N[C@@H]1C(=O)N2[C@@H]1SC(C)(C)[C@@H]2C(=O)O` [CLOXACILLIN], the IC50 entry (in assay [1]; in assay [2]; on Estrogen receptor; against Melanocortin receptor 4; in assay [3]; in assay [4]) was “Not Active” throughout. The Ki entry in assay [4] is “Not Active”.
For the compound `CCCN1C[C@H](CSC)C[C@@H]2c3cccc4[nH]cc(c34)C[C@H]21` [PERGOLIDE], the IC50 entry (in assay [1]; in assay [2]; against Estrogen receptor; at Melanocortin receptor 4; in assay [3]; in assay [4]) was “Not Active” in each case. For the same compound, the Ki entry in assay [4] was “Not Active”.
In the case of LIPOPOLYSACCHARIDE E. COLI O55:B5, the IC50 result (in assay [1]; in assay [2]; against Estrogen receptor; against Melanocortin receptor 4; in assay [3]; in assay [4]) was “Not Active” each time. Moreover, the Ki result (in assay [1]; in assay [2]; at Estrogen receptor; at Melanocortin receptor 4; in assay [3]; in assay [4]) was “Not Active” in each case.
Regarding `CC(O)CO` (stereo unspecified) [PROPYLENE GLYCOL], the IC50 entry (in assay [1]; in assay [2]; against Estrogen receptor; against Melanocortin receptor 4; in assay [3]; in assay [4]) was “Not Active” each time. Moreover, the Ki entry in assay [4] is “Not Active”.
In the case of `CC(C)C(Br)C(=O)NC(N)=O` (stereo unspecified) [BROMISOVALUM], the IC50 entry (in assay [1]; in assay [2]; on Estrogen receptor; on Melanocortin receptor 4; in assay [3]; in assay [4]) was “Not Active” throughout. In assay [4], the Ki result was “Not Active”.
`CNCCCN1c2ccccc2CCc2ccccc21` [DESIPRAMINE]: the IC50 result (in assay [1]; against Estrogen receptor; at Melanocortin receptor 4; in assay [3]; in assay [4]) was “Not Active” each time. In addition, the Ki result in assay [4] is on record as “Not Active”.

For the origin of these results see ChEMBL document CHEMBL1909046, “DrugMatrix in vitro pharmacology data”.
